US20190209712A1, “HUMANIZED MURINE MODEL OF CHRONIC HEPATITIS B CONSTRUCTED USING STEM CELLS AND METHOD OF USING SAME” (Zhejiang University, priority 2017, published 2019)

System: HBV
Assay: Efficacy of and drug resistance to antiviral drugs in humanized rat model of chronic hepatitis B (HBV viral load)
Assay type: in vivo
Settings: humanized rats with chronic hepatitis B; therapeutic dose; 1, 2, 4, 8, 12 and 24 weeks after treatment; FIG. 2
Description: The Study of Efficacy of and Drug Resistance to the Antiviral Drugs Using a Humanized Rat Model of Chronic Hepatitis B • 1. 200 humanized rats with chronic hepatitis B were randomly divided into four groups. There were no significant differences in age, gender, weight and baseline of HBV viral load among the groups. • 2. Therapeutic dose of commonly used antiviral drugs lamivudine, telbivudine, entecavir and tenofovir were administered to each of the four groups, respectively. • 3. At 1 week, 2 weeks, 4 weeks, 8 weeks, 12 weeks and 24 weeks after the treatment, the viral load of HBV in each group of rats was detected, respectively. • 4. Curves were plotted based on the viral load in each group at each time point. The difference between the groups was compared to evaluate the efficacy of and drug resistance to existing commonly used antiviral drugs.

SMILES | drop of the viral titer curves (viral load of HBV)
C=C1[C@H](CO)[C@@H](O)C[C@@H]1n1cnc2c(=O)[nH]c(N)nc21 [entecavir] | superior to those of the telbivudine group and the lamivudine group
C[C@H](Cn1cnc2c(N)ncnc21)OCP(=O)(O)O [tenofovir] | superior to those of the telbivudine group and the lamivudine group
